According to ChEMBL document CHEMBL1201862, “PubChem BioAssay data set” (2004):
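These data come from cells grown in 96-well plates and exposed to compound for 48 hours at five concentrations. GI50: concentration for 50% inhibition of growth.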 Calls of active or inactive are those of the source. Cut-off read from the data, not from the text of the source: active = GI50 up to about 1.1 µM and inactive = higher.

Experiments:
Experiment in all cases: inhibition of tumour cell growth, NCI panel, 48 h
[1] = system: OVCAR-5
[2] = system: SK-MEL-28
[3] = system: MDA-N
[4] = system: MCF7
[5] = system: RXF 393
[6] = system: HCC 2998
[7] = system: HCT-15
[8] = system: HOP-92
[9] = system: SW-620
[10] = system: IGROV-1
[11] = system: ACHN
[12] = system: EKVX
[13] = system: MDA-MB-231
[14] = system: MOLT-4
[15] = system: OVCAR-4
[16] = system: SF-295
[17] = system: KM12
[18] = system: TK-10
[19] = system: UO-31
[20] = system: SK-OV-3
[21] = system: OVCAR-3
[22] = system: HOP-62
[23] = system: SNB-75
[24] = system: SK-MEL-5
[25] = system: HCT-116
[26] = system: COLO 205
[27] = system: SR
[28] = system: BT-549
[29] = system: UACC-257
[30] = system: K562
[31] = system: CAKI-1
[32] = system: SN12C
[33] = system: Malme-3M
[34] = system: A549
[35] = system: HL-60
[36] = system: NCI-H226
[37] = system: CCRF-CEM
[38] = system: PC-3
[39] = system: NCI-H460
[40] = system: UACC-62
[41] = system: RPMI-8226
[42] = system: SF-268
[43] = system: NCI-H23
[44] = system: T47D
[45] = system: DU-145
[46] = system: SF-539
[47] = system: HT-29
[48] = system: NCI/ADR-RES
[49] = system: SK-MEL-2
[50] = system: Hs-578T
[51] = system: U-251
[52] = system: LOX IMVI
[53] = system: M14
[54] = system: SNB-19
[55] = system: OVCAR-8
[56] = system: MDA-MB-435
[57] = system: 786-0
[58] = system: NCI-H522

With `O=C(CNS(=O)(=O)Cc1ccccc1)NNc1ccccc1` the GI50 [1] was > 100 µM (inactive), the GI50 [2] was > 100 µM (inactive) and the GI50 [3] was 15.7 µM (inactive). For the same molecule, the GI50 [4] was > 74.8 µM (inactive), the GI50 [5] was > 100 µM (inactive) and the GI50 [6] was > 100 µM (inactive). The GI50 [7] was > 100 µM, the GI50 [8] was > 100 µM (inactive) and the GI50 [9] was 8.05 µM (inactive). The GI50 [10] was 72.8 µM (inactive), the GI50 [11] was > 100 µM (inactive) and the GI50 [12] was > 69.5 µM (inactive). For the same molecule, the GI50 [13] was > 100 µM (inactive), the GI50 [14] was > 100 µM (inactive) and the GI50 [15] was > 100 µM (inactive). The GI50 [16] was 4.02 µM (inactive), the GI50 [17] was 6.1 µM (inactive) and the GI50 [18] was > 100 µM (inactive). The GI50 [19] was > 100 µM (inactive), the GI50 [20] was > 100 µM (inactive) and the GI50 [21] was 49.4 µM (inactive). For the same molecule, the GI50 [22] was > 100 µM (inactive), the GI50 [23] was > 36.6 µM (inactive) and the GI50 [24] was 80 µM (inactive). For the same molecule, the GI50 [25] was > 100 µM (inactive), the GI50 [26] was 3.23 µM (inactive) and the GI50 [27] was > 100 µM (inactive). For the same molecule, the GI50 [28] was > 100 µM (inactive), the GI50 [29] was > 78.2 µM (inactive) and the GI50 [30] was 2.5 µM (inactive). For the same molecule, the GI50 [31] was 5.6 µM (inactive), the GI50 [32] was > 100 µM (inactive) and the GI50 [33] was > 100 µM (inactive). For the same molecule, the GI50 [34] was > 100 µM (inactive), the GI50 [35] was 3.44 µM (inactive) and the GI50 [36] was > 100 µM (inactive). For the same molecule, the GI50 [37] was > 100 µM (inactive), the GI50 [38] was > 100 µM (inactive) and the GI50 [39] was 25.1 µM (inactive). For the same molecule, the GI50 [40] was 1.12 µM (active), the GI50 [41] was 18.4 µM (inactive) and the GI50 [42] was > 100 µM (inactive). The GI50 [43] was > 100 µM (inactive), the GI50 [44] was > 42.3 µM (inactive) and the GI50 [45] was > 100 µM (inactive). The GI50 [46] was 3.05 µM (inactive), the GI50 [47] was > 100 µM (inactive) and the GI50 [48] was > 100 µM (inactive). The GI50 [49] was > 30 µM (inactive), the GI50 [50] was > 100 µM (inactive) and the GI50 [51] was > 100 µM (inactive). For the same molecule, the GI50 [52] was 1.85 µM (inactive), the GI50 [53] was > 63.7 µM (inactive) and the GI50 [54] was > 100 µM (inactive). The GI50 [55] was > 100 µM (inactive), the GI50 [56] was 6.95 µM (inactive) and the GI50 [57] was > 100 µM (inactive).
In the case of `N#CC(NC12CC3CC(CC(C3)C1)C2)c1ccccc1` (stereo not given), the GI50 [1] was > 100 µM (inactive), the GI50 [2] was > 100 µM (inactive) and the GI50 [3] was > 100 µM (inactive). The GI50 [4] was > 100 µM (inactive), the GI50 [5] was > 100 µM (inactive) and the GI50 [6] was > 100 µM (inactive). The GI50 [7] was > 100 µM, the GI50 [8] was 94.2 µM (inactive) and the GI50 [9] was > 100 µM (inactive). The GI50 [10] was > 100 µM (inactive), the GI50 [11] was > 100 µM (inactive) and the GI50 [12] was > 100 µM (inactive). For the same molecule, the GI50 [13] was > 100 µM (inactive), the GI50 [14] was > 100 µM (inactive) and the GI50 [15] was > 100 µM (inactive). The GI50 [16] was > 100 µM (inactive), the GI50 [17] was > 100 µM (inactive) and the GI50 [18] was > 100 µM (inactive). The GI50 [19] was > 100 µM (inactive), the GI50 [20] was > 100 µM (inactive) and the GI50 [21] was > 100 µM (inactive). The GI50 [22] was > 100 µM (inactive), the GI50 [23] was > 100 µM (inactive) and the GI50 [24] was > 100 µM (inactive). For the same molecule, the GI50 [25] was > 100 µM (inactive), the GI50 [26] was > 100 µM (inactive) and the GI50 [27] was > 100 µM (inactive). The GI50 [28] was > 100 µM (inactive), the GI50 [29] was > 100 µM (inactive) and the GI50 [30] was > 100 µM (inactive). For the same molecule, the GI50 [31] was > 100 µM (inactive), the GI50 [32] was > 100 µM (inactive) and the GI50 [33] was > 100 µM (inactive). The GI50 [34] was > 100 µM (inactive), the GI50 [35] was > 100 µM (inactive) and the GI50 [36] was > 100 µM (inactive). The GI50 [37] was 20.8 µM (inactive), the GI50 [38] was > 100 µM (inactive) and the GI50 [58] was > 100 µM (inactive). The GI50 [39] was > 100 µM (inactive), the GI50 [40] was > 100 µM (inactive) and the GI50 [41] was > 100 µM (inactive). The GI50 [42] was > 100 µM (inactive), the GI50 [43] was > 100 µM (inactive) and the GI50 [44] was > 100 µM (inactive). For the same molecule, the GI50 [45] was > 100 µM (inactive), the GI50 [46] was > 100 µM (inactive) and the GI50 [47] was > 100 µM (inactive). The GI50 [48] was > 100 µM (inactive), the GI50 [49] was > 100 µM (inactive) and the GI50 [50] was > 100 µM (inactive). The GI50 [51] was > 100 µM (inactive), the GI50 [52] was > 100 µM (inactive) and the GI50 [53] was > 100 µM (inactive). For the same molecule, the GI50 [54] was > 100 µM (inactive), the GI50 [55] was > 100 µM (inactive) and the GI50 [56] was > 100 µM (inactive). For the same molecule, the GI50 [57] was > 100 µM (inactive).
